Results published in patent publication US10617732B2, “Composition including extract of Dolichos lablab Linne as active ingredient for preventing or ameliorating non-alcoholic fatty liver disease” (KOREA INSTITUTE OF ORIENTAL MEDICINE, priority 2014, dated 2020).

System: hepatocarcinoma cell line (HepG2)
Test: Oil Red O staining assay of triglyceride in free fatty acid-treated cells
Format: cell-based
Conditions: HepG2, 1 mM free fatty acid; 10, 30, 50 and 100 μM
Protocol: After the medium was removed from the Hepatocarcinoma cell line (HepG2), the cells were washed with 0.5 ml of PBS buffer solution, and the PBS buffer solution was completely removed therefrom. Then, 0.5 ml of 10% formalin was added thereto at room temperature and the resultant cells were incubated for 10 minutes.
After removing the formalin and adding 0.5 ml of fresh formalin, the cells were incubated for at least 1 hour (the cells can be stored in a formalin solution for several days before staining, and needs to be wrapped with an aluminum foil and parafilm to prevent the cells from being dried). […]
0.5 ml of an Oil Red O solution was added to the dried cells, which was then incubated at room temperature for 10 minutes. […] The debris of the staining solution was removed as much as possible, and images of the cells were obtained using a fluorescence microscope.
To the cells that had been completely dried, 0.5 ml of Oil Red O staining solution prepared by using 100% of isopropanol in a dry state was added. […] At this time, the resultant solution was mixed with a pipette up and down so that the cells were stained well with Oil Red O. Then, the mixture was transferred to a 96-well plate and the OD was measured at 500 nm. The OD value of 100% isopropanol was measured and used as a reference value (0 point).

Structure (SMILES): CC1(C)[C@@H](O)CC[C@]2(C)[C@H]3C(=O)C=C4[C@@H]5C[C@@](C)(C(=O)O)CC[C@]5(C)CC[C@@]4(C)[C@]3(C)CC[C@@H]12 [18 beta-glycyrrhetinic acid]
- content of triglyceride in Oil-red-O staining images: the higher concentration of 18 beta-glycyrrhetinic acid, the smaller content of triglyceride
